From a melting point compilation (Tetko et al.)

| SMILES | melting point [°C] |
| --- | --- |
| O=C(O)C1CCCc2ccccc21 (centres undefined) | 84 to 86 |
| CNC(=O)C1CN(Cc2ccccc2)CCO1 (centres undefined) | 113 to 115 |
| CS(=O)(=O)c1cc(Cl)c(C(=O)O)c(Cl)c1 | 144 to 146 |
| Nc1ccc(N2CCCC2=O)cn1 | 165 to 167 |
| CSCCC(NC(=O)c1ccccc1Br)C(=O)O (centres undefined) | 171 to 173 |
| Nc1nnc(CO)s1 | 169 to 171 |
| Nc1cc(Br)cc(Cl)c1O | 79 to 81 |
| O=[N+]([O-])c1c(Cl)ccc2scnc12 | 132 to 134 |
| CCCCOc1ccc(C=O)cc1OCC | 38 to 40 |
| N#CCc1cc(Br)ccc1F | 43 to 45 |
| CN1Cc2cc(Br)ccc2NC1=O | 209 to 211 |
| O=C1Nc2cc(OC(F)(F)F)ccc2C1=O | 183 to 185 |
| CCOC(=O)Nc1c(F)cc(F)cc1C#C[Si](C)(C)C | 74 to 76 |
| O=C1Nc2cc(N3CCCC3)ccc2C1=O | 293 to 295 |
| Cc1cc(OCC(N)=O)ccc1N | 137 to 139 |
| c1cc(-c2nnco2)ccn1 | 119 to 121 |
| NCC(=O)Nc1cccc(F)c1 | 82 to 84 |
| O=C(O)c1ccc(F)cc1S | 171 to 173 |
| CC(C)(C)c1ccc(C(=O)CC#N)cc1 | 78 to 80 |
| O=C(O)CCCn1c(=O)oc2ccccc21 | 141 to 143 |
| O=C1NCCC=C1Cl | 76 to 78 |
| Cc1cc(C)c2c(=O)[nH]sc2n1 | 195 to 197 |
| CC(=O)NC1(c2noc(CCl)n2)CCCC1 | 74 to 76 |
| Cc1[nH]c2ccccc2c1C(=O)CBr | 203 to 205 |

| SMILES | melting point [°C] |
| --- | --- |
| O=C(O)c1cc(S(=O)(=O)Cl)ccc1F | 107 to 109 |
| O=C(O)c1cccc(S(=O)(=O)Nc2ccc(F)cc2)c1 | 140 to 142 |
| Cc1cc2[nH]c(=O)c3ccccc3n2n1 | 278 to 282 |
| CC(C)(C)OC(=O)N1CCN(CCS(N)(=O)=O)CC1 | 138 to 140 |
| Cc1ccccc1-c1nnc(N)[nH]1 | 219 to 221 |
| O=C(O)CCn1c(=O)[nH]c(=O)c2ccccc21 | 231 to 233 |
| O=C(O)Cn1cc(C(F)(F)F)ccc1=O | 218 to 220 |
| O=C(O)CNS(=O)(=O)c1ccc(Cl)cc1 | 177 to 179 |
| CS(=O)(=O)Nc1cccc(CC(=O)O)c1 | 156 to 158 |
| NC1(C(=O)O)CCN(Cc2ccccc2)C1 (centres undefined) | 216 to 218 |
| CC(C)(N)CCS(C)(=O)=O | 41 to 43 |
| O=C1OC(=O)c2cc(Cl)ccc21 | 96 to 98 |
| Cc1nn(C)c(C(=O)O)c1[N+](=O)[O-] | 146 to 148 |
| O=C(O)c1cccc(S(=O)(=O)NCc2cccnc2)c1 | 231 to 233 |
| O=C(O)CCS(=O)c1ccc2c(c1)OCCCO2 (centres undefined) | 114 to 116 |
| c1ccc(NC2CCCCC2)nc1 | 123 to 125 |
| O=C(O)C(NC1CC1)c1ccc(O)cc1 (centres undefined) | 210 to 212 |
| NC(=O)Cc1cccc(C(F)(F)F)c1 | 106 to 108 |
| Cc1cccc2c(=O)[nH]c(CCl)nc12 | 190 to 192 |
| CCc1nn(C)c(CC)c1S(N)(=O)=O | 177 to 179 |
| O=C(O)c1cc(Br)cc([N+](=O)[O-])c1Cl | 226 to 228 |
| Cc1ccc(-n2c(C)nnc2S)cc1 | 98 to 100 |
| O=C(O)c1cccc(-n2[nH]c(=O)ccc2=O)c1 | 312 to 314 |
| CC(=O)c1cccc(NC(=O)OCC(F)(F)F)c1 | 135 to 137 |

| SMILES | melting point [°C] |
| --- | --- |
| Nc1ccc2nc(N3CCOCC3)sc2c1 | 166 to 168 |
| Fc1ccc(-c2cc[nH]n2)cc1 | 96 to 98 |
| CN1N=C(C(N)=O)CCC1=O | 169 to 171 |
| CC1(c2cccc(-n3cnnn3)c2)NC(=O)NC1=O (centres undefined) | 190 to 192 |
| NS(=O)(=O)c1ccc2[nH]c(=O)c(=O)[nH]c2c1 | 372 to 374 |
| OC(CCc1ccccc1)CCc1ccccc1 | 44 to 46 |
| COc1ccc(-c2nnc(N)o2)cc1OC | 235 to 237 |
| O=Cc1ccc(Oc2ccc([N+](=O)[O-])cc2Cl)c(F)c1 | 81 to 83 |
| CC(Cl)C(=O)Nc1cc([N+](=O)[O-])ccc1Cl (centres undefined) | 120 to 122 |
| Cc1nn2c(CO)c(C)nc2s1 | 129 to 131 |
| ClCc1csc(-c2ccsc2)n1 | 64 to 66 |
| Cc1nn(CCO)c(C(F)(F)Cl)c1C(=O)O | 124 to 126 |
| CCOC(=O)c1cn[nH]c1C(F)F | 64 to 66 |
| CC(C)N(CCC(=O)O)C(=O)OC(C)(C)C | 65 to 67 |
| Clc1ccc(-n2cccn2)cc1Cl | 59 to 61 |
| CC(C)c1nc(Cl)nc(N(C)C)n1 | 57 to 59 |
| O=S(=O)(c1ccc(Cl)nc1)N(Cc1ccccc1)Cc1ccccc1 | 106 to 108 |
| NS(=O)(=O)c1ccc(Cl)cc1F | 104 to 106 |
| Nc1nn(C(=O)c2ccccc2Br)c2ccccc12 | 224 to 226 |
| O=C(O)CCC(=O)N1CCC(c2ccccc2)=N1 | 182 to 184 |
| Nc1ccn(CC(=O)N2CCOCC2)n1 | 168 to 170 |
| N#CCC(=O)NC1CCCC1 | 92 to 94 |
| CC(C)(C)c1cc(N)n(-c2ccc(F)cc2)n1 | 98 to 100 |
| O=[N+]([O-])c1cnccc1S | 109 to 111 |

| SMILES | melting point [°C] |
| --- | --- |
| CCc1cc(=O)n2c([nH]c3ccccc32)c1C#N | 244 to 246 |
| Nc1ccc(OCc2ccccc2)nc1 | 42 to 44 |
| Cc1cc(N2CCCC(N)C2=O)n(C)n1 (centres undefined) | 88 to 90 |
| Nc1ccc(S(N)(=O)=O)cc1[N+](=O)[O-] | 206 to 208 |
| O=C(Nc1ccc(-n2cccn2)c(F)c1)OCC(F)(F)F | 156 to 158 |
| Cc1ccc2[nH]cc(C=O)c2c1 | 142 to 144 |
| O=C(O)CCNC(=O)c1ccc(Br)cc1 | 142 to 144 |
| COc1ccc(C(=O)Nc2nc(C)cs2)cc1N | 164 to 166 |
| COc1ccc(C(=O)O)nc1Br | 232 to 234 |
| COc1ccc(C(N)C(=O)O)cc1OC (centres undefined) | 218 to 220 |
| CC(C)NC(C)(C)CO | 42 to 44 |
| Cn1nnnc1-c1cccc(NC(=O)OCC(F)(F)F)c1 | 128 to 130 |
| NC(CCN1CCN(Cc2ccccc2)CC1)=NO | 111 to 113 |
| O=C1CCc2cc(O)ccc2N1 | 239 to 241 |
| O=C(NC1CC1)c1ccc(Br)cc1F | 111 to 113 |
| O=C1CC(c2ccccc2)NCCN1 (centres undefined) | 102 to 104 |
| Cn1cc(C(=O)CBr)cn1 | 116 to 118 |
| Cc1ccccc1CCNC(=O)CCl | 68 to 70 |
| COc1cccc(CN2C(=O)NC(=O)C2=O)c1 | 139 to 141 |
| CC(C)(N)c1noc(C(N)=O)n1 | 168 to 170 |
| COc1cc(F)c(C(C)=O)cc1OC | 92 to 94 |
| Cc1cc(C(=O)C(C)Cl)c(C)n1-c1ccccc1 (centres undefined) | 78 to 82 |
| Oc1ccc(OC2CCCCC2)cc1 | 63 to 65 |
| O=C(CCl)NCCCc1ccccc1 | 76 to 79 |

| SMILES | melting point [°C] |
| --- | --- |
| COc1ccc2nc(C#N)ccc2c1 | 176 to 178 |
| O=C1CC2(CCCC2)CN1 | 68 to 70 |
| Cc1c(Cl)nc(N(C)C)nc1Cl | 54 to 56 |
| Nc1ccc2[nH]c(CCN3CCOCC3)nc2c1 | 201 to 203 |
| COc1cccc(C(N)=O)c1O | 155 to 157 |
| O=C(O)c1cc(-c2cccnc2)nc2nc(N3CCCC3)sc12 | 329 to 331 |
| O=C1Nc2cc(F)ccc2C1=O | 184 to 186 |
| Cc1cccc(OCC(=O)N2CCNCC2)c1C | 86 to 88 |
| O=C(NC1CCCC1)c1ccccc1O | 75 to 77 |
| Fc1cc(Br)cc2cc(Br)cnc12 | 161 to 163 |
| CNCc1cn(C)c(=O)n(C)c1=O | 128 to 130 |
| O=Cc1cnc(-c2cnccn2)s1 | 159 to 161 |
| N#CCc1ncc(C(F)(F)F)cc1Cl | 34 to 36 |
| CCOc1ccccc1C(=O)N1CCNCC1 | 82 to 84 |
| CC1(O)CCC(N)CC1 (centres undefined) | 89 to 91 |
| CC(C)(C)OC(=O)NNCCS(C)(=O)=O | 105 to 107 |
| Cn1cc(N2CCC(Br)C2=O)cn1 (centres undefined) | 136 to 138 |
| c1cnc(N2CCN(c3ncccn3)CC2)nc1 | 144 to 146 |
| COC(=O)c1cc(C(=O)OC)cc(S(=O)(=O)Cl)c1 | 105 to 107 |
| O=C(O)c1cc(/C=C/c2ccc(C(F)(F)F)cc2)nc2ccc(Br)cc12 | 316 to 318 |
| Cc1cc(C(=O)O)c(C)n1-c1cccnc1 | 192 to 194 |
| O=C(O)c1ccc(S(=O)(=O)NC2CCS(=O)(=O)C2)cc1 (centres undefined) | 303 to 305 |
| Cc1cc(C)nc(-n2nc(N)cc2C)n1 | 134 to 136 |
| COC(=O)c1c(C)[nH]c(C(=O)CCl)c1C | 166 to 168 |

| SMILES | melting point [°C] |
| --- | --- |
| COC(=O)C1CCN(c2ccnc(C#N)c2)CC1 | 104 to 106 |
| CCNC(=O)c1ccc(CN)cc1 | 92 to 94 |
| COc1ccc2c(c1)NC(=O)CCC2 | 127 to 129 |
| CC1CCC(C(C)C)C(OC(=O)CO)C1 (centres undefined) | 85 to 87 |
| Nc1ccc(CN2C(=O)CCC2=O)cc1 | 141 to 143 |
| O=[N+]([O-])c1ccc(Cl)c(Br)c1 | 57 to 59 |
| CC(=O)c1cc(Cl)cc(CCl)c1O | 72 to 74 |
| CNC(=O)c1ccc(NC)c([N+](=O)[O-])c1 | 207 to 209 |
| CC(C)c1ccc(N2Cc3ccc(N)cc3C2)cc1 | 164 to 166 |
| O=C(O)CCn1nc(-c2cccs2)oc1=O | 146 to 148 |
| CC(=O)c1ccc(-c2ccccc2Cl)s1 | 54 to 56 |
| CCOc1ccc(C=CCN)cc1 | 46 to 48 |
| O=C(O)C1CC(=O)N(C2CCS(=O)(=O)C2)C1 (centres undefined) | 255 to 257 |
| CC1Oc2ccc(N)cc2NC1=O (centres undefined) | 198 to 200 |
| Cc1nc(Cl)c(NN)nc1C | 134 to 136 |
| CCCc1cc(=O)c2cc(Oc3ccccc3)ccc2[nH]1 | 207 to 209 |
| CC(C)(C(=O)O)C(O)c1cccc(OCc2ccccc2)c1 (centres undefined) | 125 to 127 |
| Cc1ccc(Nc2nc(N)nc(CCl)n2)cc1 | 158 to 160 |
| O=C(O)CC1c2ccccc2Oc2ccccc21 | 153 to 155 |
| ClCc1noc(-c2ccoc2)n1 | 77 to 79 |
| Nc1cccc(-c2nccn2CC(=O)O)c1 | 249 to 251 |
| O=C(O)C1CCCN(c2nc3ccccc3s2)C1 (centres undefined) | 166 to 168 |
| CC(=O)CC(=O)Nc1ccc(C(C)C)cc1 | 68 to 70 |
| FC(F)(F)Cc1nnc2ccc(Cl)nn12 | 137 to 139 |
